The results in this text go back to patent publication US20080200519A1, “TETRAHYDRONAPHTHALENYLAMIDES, A PROCESS FOR THEIR PRODUCTION AND THEIR USE AS ANTI-INFLAMMATORY AGENTS” (priority 2007, published 2008).

What is called IC50 is the concentration at which inhibition is half-maximal.

SMILES strings stand for the structures. Where only a bound is given, the exact number is not on record here.

The target of experiment [1] is T1, glucocorticoid receptor (GR) (Homo sapiens, UniProt P04150).
T1 construct: made in house; host or cells: Sf9 cells infected with recombinant baculovirus (cytosol preparation)
T1 sequence (P04150 1-777): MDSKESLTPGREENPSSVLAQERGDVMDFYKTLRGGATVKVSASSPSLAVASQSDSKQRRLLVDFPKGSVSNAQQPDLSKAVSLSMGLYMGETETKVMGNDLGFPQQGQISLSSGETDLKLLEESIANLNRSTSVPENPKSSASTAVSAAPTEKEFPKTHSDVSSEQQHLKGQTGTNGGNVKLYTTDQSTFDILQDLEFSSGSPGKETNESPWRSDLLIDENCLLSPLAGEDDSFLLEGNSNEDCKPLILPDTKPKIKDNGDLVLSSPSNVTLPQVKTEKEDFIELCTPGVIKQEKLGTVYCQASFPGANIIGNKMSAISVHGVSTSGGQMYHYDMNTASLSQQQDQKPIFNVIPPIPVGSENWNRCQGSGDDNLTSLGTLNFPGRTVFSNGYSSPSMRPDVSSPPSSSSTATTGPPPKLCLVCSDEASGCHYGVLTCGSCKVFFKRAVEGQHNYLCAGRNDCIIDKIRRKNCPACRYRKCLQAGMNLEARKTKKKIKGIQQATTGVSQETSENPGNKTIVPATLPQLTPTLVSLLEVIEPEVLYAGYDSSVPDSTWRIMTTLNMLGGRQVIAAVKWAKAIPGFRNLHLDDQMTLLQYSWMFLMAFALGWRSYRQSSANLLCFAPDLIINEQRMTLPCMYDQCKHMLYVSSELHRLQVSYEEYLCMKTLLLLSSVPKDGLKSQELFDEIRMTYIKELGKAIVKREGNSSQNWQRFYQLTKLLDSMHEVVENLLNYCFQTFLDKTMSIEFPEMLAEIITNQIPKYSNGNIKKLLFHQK
Kind of experiment: binding to recombinantly produced glucocorticoid receptor, cytosol preparations of Sf9 cells, [3H]-dexamethasone as reference. Particulars: recombinant GR. The source says:
(§1) The binding of the substances to the glucocorticoid receptor (GR) and other steroid hormone receptors (mineral corticoid receptor (MR), progesterone receptor (PR) and androgen receptor (AR)) is examined with the aid of recombinantly produced receptors. Cytosol preparations of Sf9 cells, which had been infected with recombinant baculoviruses, which code for the GR, are used for the binding studies. In comparison to reference substance [^3H]-dexamethasone, the substances show a high to very high affinity to GR.

For experiment [2], the target named is T2, mineral corticoid receptor (MR) (Homo sapiens, UniProt P08235).
T2 construct: made in house
T2 sequence (P08235 1-984): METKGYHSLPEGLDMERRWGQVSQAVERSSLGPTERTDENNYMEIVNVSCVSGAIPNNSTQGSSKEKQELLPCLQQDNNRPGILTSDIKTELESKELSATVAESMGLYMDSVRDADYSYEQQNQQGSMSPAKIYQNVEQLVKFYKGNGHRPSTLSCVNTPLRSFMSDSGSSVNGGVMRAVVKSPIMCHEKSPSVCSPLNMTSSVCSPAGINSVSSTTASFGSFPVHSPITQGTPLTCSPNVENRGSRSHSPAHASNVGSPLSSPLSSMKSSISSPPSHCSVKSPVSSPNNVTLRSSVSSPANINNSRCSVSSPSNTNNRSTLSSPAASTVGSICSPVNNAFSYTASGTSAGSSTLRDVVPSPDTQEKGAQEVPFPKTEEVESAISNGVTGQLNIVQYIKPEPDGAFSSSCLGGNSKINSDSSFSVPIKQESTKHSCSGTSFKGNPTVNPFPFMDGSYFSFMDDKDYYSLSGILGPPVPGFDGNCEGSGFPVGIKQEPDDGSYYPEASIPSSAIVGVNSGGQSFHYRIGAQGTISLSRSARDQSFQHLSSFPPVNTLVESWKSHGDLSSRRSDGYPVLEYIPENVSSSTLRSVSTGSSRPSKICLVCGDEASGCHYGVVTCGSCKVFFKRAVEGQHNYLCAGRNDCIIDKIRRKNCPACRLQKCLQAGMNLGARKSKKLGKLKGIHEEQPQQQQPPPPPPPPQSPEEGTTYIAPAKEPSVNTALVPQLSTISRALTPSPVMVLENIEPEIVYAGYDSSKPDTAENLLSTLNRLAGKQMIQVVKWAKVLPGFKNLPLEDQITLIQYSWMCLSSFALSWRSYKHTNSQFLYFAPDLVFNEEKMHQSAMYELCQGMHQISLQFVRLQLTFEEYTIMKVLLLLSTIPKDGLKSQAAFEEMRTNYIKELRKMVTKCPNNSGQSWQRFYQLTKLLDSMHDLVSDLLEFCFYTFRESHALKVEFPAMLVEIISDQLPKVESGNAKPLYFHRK
Put plainly: binding to recombinantly produced mineral corticoid receptor.
Description: as §1

Experiment [3] deals with T3, progesterone receptor (PR) (Homo sapiens, UniProt P06401).
T3 construct: made in house
T3 sequence (P06401 1-933): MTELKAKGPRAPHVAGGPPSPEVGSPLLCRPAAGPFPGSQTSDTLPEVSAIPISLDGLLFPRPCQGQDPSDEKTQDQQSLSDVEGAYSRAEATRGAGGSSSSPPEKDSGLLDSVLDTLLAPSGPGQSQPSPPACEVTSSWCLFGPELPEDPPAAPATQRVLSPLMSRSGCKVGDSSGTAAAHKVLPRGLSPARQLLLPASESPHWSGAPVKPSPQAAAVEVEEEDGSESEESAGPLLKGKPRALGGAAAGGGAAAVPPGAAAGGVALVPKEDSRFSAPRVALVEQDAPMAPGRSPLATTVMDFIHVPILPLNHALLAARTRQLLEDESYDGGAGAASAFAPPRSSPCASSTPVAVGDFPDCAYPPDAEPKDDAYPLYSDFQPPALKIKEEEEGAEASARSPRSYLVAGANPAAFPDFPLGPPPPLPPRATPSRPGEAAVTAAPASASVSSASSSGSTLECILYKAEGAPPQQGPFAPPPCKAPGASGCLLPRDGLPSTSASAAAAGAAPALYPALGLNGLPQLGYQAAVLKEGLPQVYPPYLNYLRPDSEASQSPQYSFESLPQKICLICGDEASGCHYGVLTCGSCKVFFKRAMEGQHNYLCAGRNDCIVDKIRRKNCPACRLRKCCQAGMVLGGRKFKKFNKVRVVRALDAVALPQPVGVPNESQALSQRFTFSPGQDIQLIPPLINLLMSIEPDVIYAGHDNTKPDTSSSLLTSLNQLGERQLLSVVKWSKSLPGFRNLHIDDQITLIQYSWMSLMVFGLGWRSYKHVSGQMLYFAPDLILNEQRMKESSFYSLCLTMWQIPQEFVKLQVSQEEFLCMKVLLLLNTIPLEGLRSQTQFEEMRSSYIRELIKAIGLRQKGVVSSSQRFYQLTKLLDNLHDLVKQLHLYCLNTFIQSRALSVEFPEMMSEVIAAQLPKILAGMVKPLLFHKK
Kind of experiment: binding to recombinantly produced progesterone receptor.
Description: as §1

In experiment [4] the target is T4, androgen receptor (AR) (Homo sapiens, UniProt P10275).
T4 construct: made in house
T4 sequence (P10275 1-920): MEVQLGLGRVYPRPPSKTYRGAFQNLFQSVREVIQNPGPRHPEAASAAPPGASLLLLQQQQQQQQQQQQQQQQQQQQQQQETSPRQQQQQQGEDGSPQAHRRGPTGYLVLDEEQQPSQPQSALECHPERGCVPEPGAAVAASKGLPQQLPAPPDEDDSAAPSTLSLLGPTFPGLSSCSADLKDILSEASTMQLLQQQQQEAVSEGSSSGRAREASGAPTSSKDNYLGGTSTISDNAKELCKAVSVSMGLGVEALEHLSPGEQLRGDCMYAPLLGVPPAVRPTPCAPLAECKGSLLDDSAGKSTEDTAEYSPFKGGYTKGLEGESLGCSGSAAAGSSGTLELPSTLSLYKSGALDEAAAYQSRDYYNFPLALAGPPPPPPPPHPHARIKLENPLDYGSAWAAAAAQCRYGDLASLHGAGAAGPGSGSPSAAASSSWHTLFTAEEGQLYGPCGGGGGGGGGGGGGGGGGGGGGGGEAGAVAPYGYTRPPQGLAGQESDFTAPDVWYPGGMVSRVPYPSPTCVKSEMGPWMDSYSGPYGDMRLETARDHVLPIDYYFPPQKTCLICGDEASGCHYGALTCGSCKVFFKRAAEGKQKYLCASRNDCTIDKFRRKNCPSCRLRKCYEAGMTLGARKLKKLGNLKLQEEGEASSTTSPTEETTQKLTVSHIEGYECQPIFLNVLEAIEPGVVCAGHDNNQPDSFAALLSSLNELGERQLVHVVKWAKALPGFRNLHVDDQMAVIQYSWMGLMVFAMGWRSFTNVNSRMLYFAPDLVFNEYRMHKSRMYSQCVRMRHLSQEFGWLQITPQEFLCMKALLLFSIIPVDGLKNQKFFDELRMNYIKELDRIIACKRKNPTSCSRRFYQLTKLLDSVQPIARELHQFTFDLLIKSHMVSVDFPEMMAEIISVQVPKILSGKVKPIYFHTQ
Kind of experiment: binding to recombinantly produced androgen receptor.
Description: as §1

The target of experiment [5] is ER. Kind of experiment: steroid receptor binding, ER.
For experiment [6], the system named is secretion of cytokine IL-8 in human monocyte cell line THP-1. Put plainly: inhibition of LPS-triggered IL-8 secretion in THP-1 cells (ELISA). The experiment is classed as cell-based. The protocol: The concentration of the cytokines was determined in the supernatant by means of commercially available ELISA kits.
For orientation: In an ELISA, binding on a coated surface is turned into a signal by an enzyme label.

Regarding `COc1c(F)ccc2c1C(C)(C)C[C@](O)(C(F)(F)F)[C@H]2NC(=O)c1cnn(-c2ccc(F)cc2F)c1N` (relative stereo) [Example 3, 5-Amino-1-(2,4-difluorophenyl)-N-[(cis)-6-fluoro-1,2,3,4-tetrahydro-2-hydroxy-5-methoxy-4,4-dimethyl-2-(trifluoromethyl)naphthalene-1-yl]-1H-pyrazole-4-carboxamide], the concentration for half-maximal inhibition (IC50) in experiment [1] was 6 nM; in experiment [2] it was above 1000 nM; in experiment [3], above 1000 nM; in experiment [4], above 1000 nM; in experiment [5], above 1000 nM; in experiment [6] (Homo sapiens, read-out: IC50(IL8)) it was 7.1 nM. Also, in experiment [6] (IL-8 inhibition), the “eff. relative to dexamethasone” value was 96%.
